The values below are quoted from earlier work in US20080113031A1, “Minicapsule Formulations” (priority 2004, published 2008).

Test in data set [1]: not given
This is another data set of the same source.

In the case of `COCCOC(=O)C1=C(C)NC(C)=C(C(=O)OC(C)C)C1c1cccc([N+](=O)[O-])c1` (centres unmarked) [Nimodipine], the solubility in water result was “practically insoluble”.

B1: PAL from Rhodosporidium toruloides: phenylalanine ammonia-lyase from Rhodosporidium toruloides (protein, UniProt P11544 1-716, looked up)
Phenylalanine/tyrosine …: MAPSLDSISHSFANGVASAKQAVNGASTNLAVAGSHLPTTQVTQVDIVEKMLAAPTDSTLELDGYSLNLGDVVSAARKGRPVRVKDSDEIRSKIDKSVEFLRSQLSMSVYGVTTGFGGSADTRTEDAISLQKALLEHQLCGVLPSSFDSFRLGRGLENSLPLEVVRGAMTIRVNSLTRGHSAVRLVVLEALTNFLNHGITPIVPLRGTISASGDLSPLSYIAAAISGHPDSKVHVVHEGKEKILYAREAMALFNLEPVVLGPKEGLGLVNGTAVSASMATLALHDAHMLSLLSQSLTAMTVEAMVGHAGSFHPFLHDVTRPHPTQIEVAGNIRKLLEGSRFAVHHEEEVKVKDDEGILRQDRYPLRTSPQWLGPLVSDLIHAHAVLTIEAGQSTTDNPLIDVENKTSHHGGNFQAAAVANTMEKTRLGLAQIGKLNFTQLTEMLNAGMNRGLPSCLAAEDPSLSYHCKGLDIAAAAYTSELGHLANPVTTHVQPAEMANQAVNSLALISARRTTESNDVLSLLLATHLYCVLQAIDLRAIEFEFKKQFGPAIVSLIDQHFGSAMTGSNLRDELVEKVNKTLAKRLEQTNSYDLVPRWHDAFSFAAGTVVEVLSSTSLSLAAVNAWKVAAAESAISLTRQVRETFWSAASTSSPALSYLSPRTQILYAFVREELGVKARRGDVFLGKQEVTIGSNVSKIYEAIKSGRINNVLLKMLA
Turning to B1, the “activity at pH 2.2” value in data set [1] is on record as “no activity”.
